Data set [1] deals with NPM-ALK fusion protein (Homo sapiens, UniProt P06748+Q9UM73). The experiment in a line: NPM-ALK fusion protein levels in SU-DHL-1 cells by western blot. Particulars: for duration of NPM-ALK degradation and ALK signaling inhibition / time at which significant (>50%) NPM-ALK degradation was achieved / time of maximum degradation of NPM-ALK / effect on fused ALK (NPM-ALK) protein levels: 30 nM; for duration of NPM-ALK degradation and ALK signaling inhibition / time at which significant (>50%) NPM-ALK degradation was achieved / time of maximum degradation of NPM-ALK: time course; for reduction of the ALK fusion protein levels: 100 nM; for reduction of the ALK fusion protein levels / effect on fused ALK (NPM-ALK) protein levels: 16 h; for hook effect: up to 100 nM degrader. It counts as cell-based.

Data set [2] has as its system ALK tyrosine 1507 (Y1507) phosphorylation (Y527 in NPM-ALK). In words: ALK Y1507 phosphorylation in SU-DHL-1 cells by western blot. Particulars: for inhibition at 0.1 µM: Homo sapiens, read-out: inhibition of ALK Y1507 phosphorylation; for treatment time after which p-ALK was significantly inhibited: SU-DHL-1 cells, 30 nM, time course. It counts as cell-based, human.
The subject of data set [3] is SU-DHL-1 cells. The experiment in a line: cell death / toxicity observed in SU-DHL-1 cells during blot experiments. It counts as cell-based.
Data set [4] deals with NCI-H2228 cells. The experiment in a line: NCI-H2228 cell proliferation, CellTiter-Glo cell viability assay. It counts as cell-based, human.
The subject of data set [5] is STAT3 tyrosine 705 (Y705) phosphorylation. The experiment in a line: STAT3 Y705 phosphorylation in SU-DHL-1 cells by western blot. In kind it is cell-based, human. Particulars: for inhibition at 0.1 µM: Homo sapiens, SU-DHL-1, read-out: inhibition of STAT3 Y705 phosphorylation; for treatment time after which p-STAT3 was significantly inhibited: SU-DHL-1 cells, 30 nM, time course.

Data set [6] has as its system EML4-ALK fusion protein variant 3. Particulars: NCI-H2228 cells; for duration of EML4-ALK degradation and signaling pathway inhibition / time of maximum degradation of EML4-ALK: 60 nM, time course; for reduction of EML4-ALK protein levels / effect on EML4-ALK protein levels: 100 nM, 16 h.
The nature of data set [7]: mouse pharmacokinetic. It counts as in vivo, male Swiss Albino mice. The conditions noted are these: single 50 mg/kg IP.
Data set [8] in a line: tolerability in the mouse PK study. Particulars: 50 mg/kg IP.
The test system of data set [9] is ALK downstream signaling (p-ALK, p-STAT3). The experiment in a line: ALK downstream signaling pathway inhibition in SU-DHL-1 cells by western blot. It counts as cell-based, human. Particulars: 30 nM.
The subject of data set [10] is SU-DHL-1 cells. In words: SU-DHL-1 cell proliferation, CellTiter-Glo luminescent cell viability assay. It counts as cell-based, human. The conditions noted are these: 3 days.

For the compound `Cc1cc(Nc2ncc(Cl)c(Nc3ccccc3S(=O)(=O)C(C)C)n2)c(OC(C)C)cc1C1CCN(CC(=O)NCCOCCOCCOCCOCCOCCNc2cccc3c2C(=O)N(C2CCC(=O)NC2=O)C3=O)CC1` (stereo not shown) [Compound 5, 2-(4-(4-((5-Chloro-4-((2-(isopropylsulfonyl)phenyl)amino)pyrimidin-2-yl)amino)-5-isopropoxy-2-methylphenyl)piperidin-1-yl)-N-(17-((2-(2,6-dioxopiperidin-3-yl)-1,3-dioxoisoindolin-4-yl)amino)-3,6,9,12,15-pentaoxaheptadecyl)acetamide], in [1], the “duration of NPM-ALK degradation and ALK signaling inhibition” value is recorded as “at least 24 hours”; the “time at which significant (>50%) NPM-ALK degradation was achieved” value is 4 h; the “time of maximum degradation of NPM-ALK” value amounted to 16 h; the “reduction of the ALK fusion protein levels” value is “Over 90%”. For the same compound, the hook effect result in [1] was “did not observe the “hook effect””. Also, in data set [2], the inhibition at 0.1 µM was more than 90% and the “treatment time after which p-ALK was significantly inhibited” value worked out at 2 h. In [3], the “concentrations leading to significant cell death / toxic to cells” value is recorded as “above 100 nM”. Further, the “sensitivity of proliferation in comparison with SU-DHL-1 cells” value (shortened to “sensitivity of proliferation”) in [4] is “less sensitive”. Moreover, in data set [5], the inhibition at 0.1 µM is more than 90% and the “treatment time after which p-STAT3 was significantly inhibited” value amounted to 2 h. Also, in data set [6], the “duration of EML4-ALK degradation and signaling pathway inhibition” value was “at least 24 hours”; the “time of maximum degradation of EML4-ALK” value worked out at 16 h; the “reduction of EML4-ALK protein levels” value was “Over 90%”.

Consider `Cc1cc(Nc2ncc(Cl)c(Nc3ccccc3S(=O)(=O)C(C)C)n2)c(OC(C)C)cc1C1CCN(CC(=O)NCCNc2cccc3c2C(=O)N(C2CCC(=O)NC2=O)C3=O)CC1` (stereo not shown) [Compound 6, 2-(4-(4-((5-chloro-4-((2-(isopropylsulfonyl)phenyl)amino)pyrimidin-2-yl)amino)-5-isopropoxy-2-methylphenyl)piperidin-1-yl)-N-(2-((2-(2,6-dioxopiperidin-3-yl)-1,3-dioxoisoindolin-4-yl)amino)ethyl)acetamide], for which, in [7], the highest plasma concentration was 3,000 nM and the “time of highest plasma concentration post dosing” value is recorded as 2 h. In data set [1], the “duration of NPM-ALK degradation and ALK signaling inhibition” value is recorded as “at least 24 hours”; the “time at which significant (>50%) NPM-ALK degradation was achieved” value was 4 h; the “time of maximum degradation of NPM-ALK” value turned out to be 16 h; the “reduction of the ALK fusion protein levels” value is “Over 90%”. Besides, the hook effect entry in [1] is “did not observe the “hook effect””. In data set [2], the inhibition at 0.1 µM was more than 90% and the “treatment time after which p-ALK was significantly inhibited” value is 2 h. Moreover, the “concentrations leading to significant cell death / toxic to cells” value in [3] is “above 100 nM”. For the same compound, the “sensitivity of proliferation” value in [4] is listed as “less sensitive”. In data set [5], the inhibition at 0.1 µM is more than 90% and the “treatment time after which p-STAT3 was significantly inhibited” value worked out at 2 h. For the same compound, in data set [8], the clinical signs result is recorded as “no clinical signs were observed” and the tolerability result is listed as “well tolerated”. In [6], the “duration of EML4-ALK degradation and signaling pathway inhibition” value is “at least 24 hours”; the “time of maximum degradation of EML4-ALK” value was determined as 16 h; the “reduction of EML4-ALK protein levels” value is on record as “Over 90%”.

Take `Cc1cc(Nc2ncc(Cl)c(Nc3ccccc3S(=O)(=O)C(C)C)n2)c(OC(C)C)cc1C1CCN(CC(=O)NCCOCCOCCOCCOCCOCCNc2cccc3c2C(=O)N(C2CCC(=O)N(C)C2=O)C3=O)CC1` (stereo not shown) [Compound 7, 2-(4-(4-((5-Chloro-4-((2-(isopropylsulfonyl)phenyl)amino)pyrimidin-2-yl)amino)-5-isopropoxy-2-methylphenyl)piperidin-1-yl)-N-(17-((2-(1-methyl-2,6-dioxopiperidin-3-yl)-1,3-dioxoisoindolin-4-yl)amino)-3,6,9,12,15-pentaoxaheptadecyl)acetamide]: in data set [1], the “effect on fused ALK (NPM-ALK) protein levels” value (shortened to “effect on fused ALK”) is “did not reduce”. Further, the “fold less active than corresponding degrader in signaling pathway inhibition” value in [9] was “over 10 fold”. Also, in data set [10], the “cell growth inhibition” value is listed as “incomplete inhibition”. The “sensitivity of proliferation” value in [4] is reported as “less sensitive”. Further, the “effect on EML4-ALK protein levels” value in data set [6] is reported as “did not significantly affect”.

Take `Cc1cc(Nc2ncc(Cl)c(Nc3ccccc3S(=O)(=O)C(C)C)n2)c(OC(C)C)cc1C1CCN(CC(=O)NCCNc2cccc3c2C(=O)N(C2CCC(=O)N(C)C2=O)C3=O)CC1` (stereo not shown) [Compound 8, 2-(4-(4-((5-chloro-4-((2-(isopropylsulfonyl)phenyl)amino)pyrimidin-2-yl)amino)-5-isopropoxy-2-methylphenyl)piperidin-1-yl)-N-(2-((2-(1-methyl-2,6-dioxopiperidin-3-yl)-1,3-dioxoisoindolin-4-yl)amino)ethyl)acetamide]: in data set [1], the “effect on fused ALK” value is listed as “did not reduce”. Further, the “fold less active than corresponding degrader in signaling pathway inhibition” value in [9] is “over 10 fold”. For the same compound, the “cell growth inhibition” value in data set [10] was “incomplete inhibition”. For the same compound, in data set [4], the “sensitivity of proliferation” value was “less sensitive”. Moreover, the “effect on EML4-ALK protein levels” value in data set [6] was “did not significantly affect”.

In the case of `Cc1cc(Nc2ncc(Cl)c(Nc3ccccc3S(=O)(=O)C(C)C)n2)c(OC(C)C)cc1C1CCNCC1` [ceritinib, reference compound], the “effect on fused ALK” value in data set [1] is “did not significantly change”. Moreover, the “inhibition of downstream signaling compared with the degraders” value in data set [9] is listed as “more potent”. In addition, the “concentrations leading to significant cell death / toxic to cells” value in data set [3] is given as “above 100 nM”. In data set [6], the “effect on EML4-ALK protein levels” value is recorded as “did not significantly affect”.

(Values after article PMC5924614 (European journal of medicinal chemistry, 2018).)
